Data taken from US9433687B2, “Anti-Notch3 antibodies and antibody-drug conjugates” (Pfizer Inc., priority 2012, dated 2016).

Key:
[1] = test system: OVCAR3 ovarian xenografts; assay: OVCAR3 ovarian xenograft model; conditions: dose 20 mg/kg intraperitoneally Q7d×8
HCC2429 (lung cancer) = assay: In vitro cytotoxicity (MTS), HCC2429; assay type: cell-based, human; conditions: Table 13; four days; LP = lacked potency
Method: (§1) The effects of anti-Notch3 ADCs were assessed on 1) cell lines endogenously expressing Notch3 protein: HCC2429 (lung cancer), OVCAR3 (ovarian cancer) and MDA-MB-468 (breast cancer), 2) cell lines engineered to over-express full length human Notch3 protein: MDA-MB-468/hNotch3 and U2OS/hNotch3, and 3) a negative control cell line (SW900) using an MTS cellular viability indicator (Promega, Madison, Wis.). These cell lines were cultured with increasing concentrations of anti-Notch3 ADCs comprising rat-human chimeric anti-Notch3 antibodies, ch28 and ch75, and humanized anti-Notch3 antibodies, hu28 and hu75, conjugated to various linker-payload combinations of the present invention. As a specificity control for the anti-Notch3-ADCs, non-targeted control-ADCs (huNeg8.8-ADCs or ch2H6-ADCs) were also tested on the same cell lines. After four days, viability of each culture was assessed. IC50 values were calculated by logistic non-linear regression, model #203 with XL fit v4.2 (IDBS, Guildford, Surry, UK) and presented as ng Ab/mL. The drug antibody ratio (DAR) is also provided.
(§2) This process generated the anti-Notch3 cysteine mutant ADCs: hu28-(L443C)-vc0101 and hu28-(L443C/κK183C)-vc0101. The activity of the anti-Notch3 cysteine mutant ADCs were assessed on cell lines endogenously expressing Notch3 protein: HCC2429 (lung cancer) and OVCAR3 (ovarian cancer) using an MTS cellular viability indicator as described in previous Examples.

OVCAR3 (ovarian cancer) = assay: In vitro cytotoxicity (MTS), OVCAR3; assay type: cell-based, human; conditions: Table 13; four days; LP = lacked potency
Method: as §1, §2

[2] = test system: MDA-MB-468 (breast cancer); assay: In vitro cytotoxicity (MTS), MDA-MB-468; assay type: cell-based, human; conditions: Table 13; four days; LP = lacked potency
Method: as §1

## N.N.O=C([O-])C1(C(=O)[O-])CCC1.[Pt+2] [carboplatin, reference compound]
[1]; DAY 0
  tumor volume: 167 mm3
[1]; DAY 3
  tumor volume: 242 mm3
[1]; DAY 6
  tumor volume: 246 mm3
[1]; DAY 11
  tumor volume: 311 mm3
[1]; DAY 14
  tumor volume: 426 mm3
[1]; DAY 18
  tumor volume: 473 mm3
[1]; DAY 21
  tumor volume: 475 mm3
[1]; DAY 25
  tumor volume: 552 mm3
[1]; DAY 28
  tumor volume: 640 mm3
[1]; DAY 31
  tumor volume: 692 mm3
[1]; DAY 34
  tumor volume: 811 mm3
[1]; DAY 38
  tumor volume: 869 mm3
[1]; DAY 41
  tumor volume: 906 mm3
[1]; DAY 45
  tumor volume: 1009 mm3
[1]; DAY 49
  tumor volume: 1149 mm3
[1]; DAY 53
  tumor volume: 1290 mm3
[1]; DAY 56
  tumor volume: 1370 mm3
[1]; DAY 59
  tumor volume: 1514 mm3
[1]; DAY 63
  tumor volume: 1783 mm3
[1]; DAY 67
  tumor volume: 1844 mm3

B1: ch28-me0131 (conjugate)
VH: EVQLVESGGGLVQPGRSLTLSCVASGFTFRDYGMTWIRQAPGKGLTWVAYISSGSNYIYYAEAVKGRFTISRDNAKNTLYLQMTSLRSEDTALYFCTRRGPFVLDAWGQGASVTVSS
VL: DIQMTQSPSFLSASVGDRVTINCKASQSINRYLHWFQQKLGEAPKLLIYNANGLQTGIPSRFSGSGSGTDFTLTISSLQSEDVATYFCLQHNTWPDTFGAGTKLELK
HCC2429 (lung cancer)
  IC50 (ng Ab/mL) ± S.E.M., HCC2429: 30 ng Ab/mL
OVCAR3 (ovarian cancer)
  IC50 (ng Ab/mL) ± S.E.M., OVCAR3: 8 ± 2.0 ng Ab/mL
[2]
  IC50 (ng Ab/mL) ± S.E.M., MDA-MB-468: 24 ± 14.0 ng Ab/mL

B2: ch28-vc6780 (conjugate)
VH: EVQLVESGGGLVQPGRSLTLSCVASGFTFRDYGMTWIRQAPGKGLTWVAYISSGSNYIYYAEAVKGRFTISRDNAKNTLYLQMTSLRSEDTALYFCTRRGPFVLDAWGQGASVTVSS
VL: DIQMTQSPSFLSASVGDRVTINCKASQSINRYLHWFQQKLGEAPKLLIYNANGLQTGIPSRFSGSGSGTDFTLTISSLQSEDVATYFCLQHNTWPDTFGAGTKLELK
HCC2429 (lung cancer)
  IC50 (ng Ab/mL) ± S.E.M., HCC2429: 324 ± 78.9 ng Ab/mL
OVCAR3 (ovarian cancer)
  IC50 (ng Ab/mL) ± S.E.M., OVCAR3: 90 ± 48.5 ng Ab/mL
[2]
  IC50 (ng Ab/mL) ± S.E.M., MDA-MB-468: 4407 ± 2128.2 ng Ab/mL

B3: ch28-mc3377 (conjugate)
VH: EVQLVESGGGLVQPGRSLTLSCVASGFTFRDYGMTWIRQAPGKGLTWVAYISSGSNYIYYAEAVKGRFTISRDNAKNTLYLQMTSLRSEDTALYFCTRRGPFVLDAWGQGASVTVSS
VL: DIQMTQSPSFLSASVGDRVTINCKASQSINRYLHWFQQKLGEAPKLLIYNANGLQTGIPSRFSGSGSGTDFTLTISSLQSEDVATYFCLQHNTWPDTFGAGTKLELK
OVCAR3 (ovarian cancer)
  IC50 (ng Ab/mL) ± S.E.M., OVCAR3: 14 ± 5.5 ng Ab/mL
[2]
  IC50 (ng Ab/mL) ± S.E.M., MDA-MB-468: 27 ± 11.3 ng Ab/mL

B4: ch28-MalPeg6C2-8261 (conjugate)
VH: EVQLVESGGGLVQPGRSLTLSCVASGFTFRDYGMTWIRQAPGKGLTWVAYISSGSNYIYYAEAVKGRFTISRDNAKNTLYLQMTSLRSEDTALYFCTRRGPFVLDAWGQGASVTVSS
VL: DIQMTQSPSFLSASVGDRVTINCKASQSINRYLHWFQQKLGEAPKLLIYNANGLQTGIPSRFSGSGSGTDFTLTISSLQSEDVATYFCLQHNTWPDTFGAGTKLELK
[2]
  IC50 (ng Ab/mL) ± S.E.M., MDA-MB-468: 83 ± 35.5 ng Ab/mL

B5: ch28-MalPeg6C2-0131 (conjugate)
VH: EVQLVESGGGLVQPGRSLTLSCVASGFTFRDYGMTWIRQAPGKGLTWVAYISSGSNYIYYAEAVKGRFTISRDNAKNTLYLQMTSLRSEDTALYFCTRRGPFVLDAWGQGASVTVSS
VL: DIQMTQSPSFLSASVGDRVTINCKASQSINRYLHWFQQKLGEAPKLLIYNANGLQTGIPSRFSGSGSGTDFTLTISSLQSEDVATYFCLQHNTWPDTFGAGTKLELK
OVCAR3 (ovarian cancer)
  IC50 (ng Ab/mL) ± S.E.M., OVCAR3: 10 ± 2.0 ng Ab/mL
[2]
  IC50 (ng Ab/mL) ± S.E.M., MDA-MB-468: 10 ± 1.0 ng Ab/mL

B6: ch28-mc8261 (conjugate)
VH: EVQLVESGGGLVQPGRSLTLSCVASGFTFRDYGMTWIRQAPGKGLTWVAYISSGSNYIYYAEAVKGRFTISRDNAKNTLYLQMTSLRSEDTALYFCTRRGPFVLDAWGQGASVTVSS
VL: DIQMTQSPSFLSASVGDRVTINCKASQSINRYLHWFQQKLGEAPKLLIYNANGLQTGIPSRFSGSGSGTDFTLTISSLQSEDVATYFCLQHNTWPDTFGAGTKLELK
[2]
  IC50 (ng Ab/mL) ± S.E.M., MDA-MB-468: 12147 ± 4806.4 ng Ab/mL

B7: ch75-MalPeg6C2-8261 (conjugate)
VH: QVKLLQSGAALVKPGASVKMSCKASGYAFTDYWVTWVKQSHGKSLEWIGEISPNSGGTNFNEKFKGKATLTVDKSTSTAYMELSRLTSEDSAIYYCTRGEIRYNWFAYWGQGTLVTVSS
VL: DIQMTQSPSSLSASVGDRVTITCKASQNVGNNIAWYQQKPGKAPKLLIYYASNRYTGVPSRFSGSGYGTDFTLTISSLQPEDFATYYCQRLYNSPFTFGGGTKVEIK
[2]
  IC50 (ng Ab/mL) ± S.E.M., MDA-MB-468: 4255 ± 2375^ ng Ab/mL

B8: ch75-me0131 (conjugate)
VH: QVKLLQSGAALVKPGASVKMSCKASGYAFTDYWVTWVKQSHGKSLEWIGEISPNSGGTNFNEKFKGKATLTVDKSTSTAYMELSRLTSEDSAIYYCTRGEIRYNWFAYWGQGTLVTVSS
VL: DIQMTQSPSSLSASVGDRVTITCKASQNVGNNIAWYQQKPGKAPKLLIYYASNRYTGVPSRFSGSGYGTDFTLTISSLQPEDFATYYCQRLYNSPFTFGGGTKVEIK
[2]
  IC50 (ng Ab/mL) ± S.E.M., MDA-MB-468: 259 ng Ab/mL

B9: ch75-mc3377 (conjugate)
VH: QVKLLQSGAALVKPGASVKMSCKASGYAFTDYWVTWVKQSHGKSLEWIGEISPNSGGTNFNEKFKGKATLTVDKSTSTAYMELSRLTSEDSAIYYCTRGEIRYNWFAYWGQGTLVTVSS
VL: DIQMTQSPSSLSASVGDRVTITCKASQNVGNNIAWYQQKPGKAPKLLIYYASNRYTGVPSRFSGSGYGTDFTLTISSLQPEDFATYYCQRLYNSPFTFGGGTKVEIK
[2]
  IC50 (ng Ab/mL) ± S.E.M., MDA-MB-468: 560 ng Ab/mL
